Measurements: PMC10397248, “A novel N^6-Deoxyadenine methyltransferase METL-9 modulates C. elegans immunity via dichotomous mechanisms” (Cell Research, 2023)
Numbering of substitutions follows the chain as printed.

Legend:
[1] = target: mouse Mettl9 (recombinant GST-Mettl9) (Mus musculus, UniProt Q9EPL4); assay: in vitro DNA 6mA methylation, LC-MS/MS; format: biochemical; settings: biotin-ssDNA or bubbled DNA with GAGG motif 2 uM, SAM or d3-SAM 0.1 mM (which one only in supplement), pH 7.5, 2.5 mM MgCl2, 25 °C; methyl donor
Chain of mouse Mettl9 (recombinant GST-Mettl9) (Q9EPL4 whole entry): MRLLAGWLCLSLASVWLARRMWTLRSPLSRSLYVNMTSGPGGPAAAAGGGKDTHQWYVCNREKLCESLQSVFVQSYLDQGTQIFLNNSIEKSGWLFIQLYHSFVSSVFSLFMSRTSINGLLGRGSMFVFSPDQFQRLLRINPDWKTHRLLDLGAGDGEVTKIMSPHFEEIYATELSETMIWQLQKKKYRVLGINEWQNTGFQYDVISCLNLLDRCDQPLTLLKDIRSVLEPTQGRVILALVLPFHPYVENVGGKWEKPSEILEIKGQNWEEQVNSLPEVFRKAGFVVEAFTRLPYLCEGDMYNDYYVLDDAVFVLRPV

[2] = target: T1, METL-9 (recombinant GST-METL-9) (Caenorhabditis elegans, UniProt Q22123, N172K/D274G); assay: in vitro DNA 6mA methylation, LC-MS/MS; format: biochemical; settings: biotin-ssDNA oligo 2 uM, d3-SAM 0.1 mM, HEPES pH 7.5, 2.5 mM MgCl2, 80 mM KCl, 20 °C; methyl donor; labelled compound
T1 sequence (Q22123 1-311 N172K/D274G): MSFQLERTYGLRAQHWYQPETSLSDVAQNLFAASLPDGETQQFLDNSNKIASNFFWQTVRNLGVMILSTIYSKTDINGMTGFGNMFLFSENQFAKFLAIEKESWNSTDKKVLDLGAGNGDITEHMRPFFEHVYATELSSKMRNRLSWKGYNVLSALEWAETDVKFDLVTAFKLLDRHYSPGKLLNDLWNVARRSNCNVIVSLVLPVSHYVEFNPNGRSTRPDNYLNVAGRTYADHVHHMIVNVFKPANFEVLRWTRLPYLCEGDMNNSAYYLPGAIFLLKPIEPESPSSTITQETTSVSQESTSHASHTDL

[3] = substrate: C[S+](CC[C@H](N)C(=O)O)C[C@H]1O[C@@H](n2cnc3c(N)ncnc32)[C@H](O)[C@@H]1O; assay: purified protein; settings: ssDNA oligo 5 uM, varied d3-SAM, HEPES pH 7.5, 2.5 mM MgCl2, 80 mM KCl, 20 °C, methyl donor, labelled compound

With C[S+](CC[C@H](N)C(=O)O)C[C@H]1O[C@@H](n2cnc3c(N)ncnc32)[C@H](O)[C@@H]1O (stereo partly shown) [SAM] the “in vitro DNA 6mA methylation, LC-MS/MS” value [1] was “mouse Mettl9 protein showed 6mA methyltransferase activity towards ssDNA and bubbled DNA”.

In the case of C[S+](CC[C@H](N)C(=O)O)C[C@H]1O[C@@H](n2cnc3c(N)ncnc32)[C@H](O)[C@@H]1O (stereo partly shown) [d3-SAM], the “in vitro DNA 6mA methylation, LC-MS/MS” value [2] is reported as “double mutant (M8 + M10, metl-9^mut) almost completely abolished the 6mA methyltransferase activity of METL-9”.

B1: METL-9 (recombinant GST-METL-9) (Caenorhabditis elegans) (protein)
chain: T1 sequence (Q22123 1-311 N172K/D274G) with K172N, G274D
Work on B1 yielded a Km [3] of 37.69 ± 3.75 µM and a kcat [3] of 0.00131 ± 5.83e-05 s⁻¹.
